Target: T1, Penicillin acylase from Escherichia coli (Escherichia coli, UniProt P06875)
T1 construct: gene pac; prepared by a procedure described earlier
Assay: KM as competitive inhibition constant of NIPAB hydrolysis, […] nm
Assay type: biochemical
Details: pH 7.5, 0.01 M phosphate, 0.1 M KCl, 25 C; competitive with NIPAB

T1 sequence (P06875 27-235, looked up): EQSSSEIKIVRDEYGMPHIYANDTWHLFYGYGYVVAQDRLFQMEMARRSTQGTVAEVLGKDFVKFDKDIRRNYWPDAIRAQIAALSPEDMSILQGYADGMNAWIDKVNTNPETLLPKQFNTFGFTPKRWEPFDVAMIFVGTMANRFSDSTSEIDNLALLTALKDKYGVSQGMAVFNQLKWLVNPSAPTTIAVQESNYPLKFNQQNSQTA
T1 sequence (P06875 290-846, looked up): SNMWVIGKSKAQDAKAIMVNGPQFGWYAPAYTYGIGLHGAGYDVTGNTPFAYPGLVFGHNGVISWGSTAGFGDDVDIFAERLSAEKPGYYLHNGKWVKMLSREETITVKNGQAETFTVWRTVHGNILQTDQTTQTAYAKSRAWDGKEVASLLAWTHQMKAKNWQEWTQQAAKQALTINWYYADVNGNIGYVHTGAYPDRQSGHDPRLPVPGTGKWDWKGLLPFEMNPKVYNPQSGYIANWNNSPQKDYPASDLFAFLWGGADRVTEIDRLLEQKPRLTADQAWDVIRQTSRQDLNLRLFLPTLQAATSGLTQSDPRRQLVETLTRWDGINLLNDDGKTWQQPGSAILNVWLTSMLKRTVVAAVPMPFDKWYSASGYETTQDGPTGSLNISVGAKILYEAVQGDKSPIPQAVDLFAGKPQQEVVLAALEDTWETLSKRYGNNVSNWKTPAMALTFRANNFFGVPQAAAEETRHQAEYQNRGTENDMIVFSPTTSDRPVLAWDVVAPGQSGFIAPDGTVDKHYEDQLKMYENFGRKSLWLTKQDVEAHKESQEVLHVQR

| Structure (SMILES) | KM |
| --- | --- |
| O=C(O)C[C@H](NC(=O)OCc1ccccc1)C(=O)O [N-benzyloxycarbonyl derivative of aspartic acid] | the least effective binding substrates for penicillin acylase from Escherichia coli are derivatives of aspartic acid |
| C[C@H](NC(=O)OCc1ccccc1)C(=O)O [N-benzyloxycarbonyl-L-Ala] | expressed as the catalytic constant value (%) with respect to the corresponding alanine derivatives |
| O=C(O)C[C@H](NC(=O)Cc1ccccc1)C(=O)O [N-phenylacetyl derivative of aspartic acid] | the least effective binding substrates for penicillin acylase from Escherichia coli are derivatives of aspartic acid |

Source: article PMC10154775, “Specificity of Penicillin Acylases in Deprotection of N-Benzyloxycarbonyl Derivatives of Amino Acids” (Acta Naturae, 2023)
